Measurements published in patent publication US20250136568A1, “FUSED HETEROCYCLIC COMPOUNDS AS PI3KALPHA INHIBITORS” (Nanjing Zenshine Pharmaceuticals Co., Ltd., priority 2021, published 2025).
Read-outs that look alike come from different tables or passages of the source.

Assays:
Format in all cases: cell-based
[1] = test system: PI3Kα H1047R mutation cell line T-47D; experiment: Cell Proliferation IC50 Assay (CellTiter-Glo), T-47D; details: T47D (H1047R), 72 hours, CellTiter-Glo, read-out: IC50 (μM) T47D
Method in brief: (§1)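 Read-out was CellTiter-Glo luminescence after 72 h of compound exposure at 37 °C, 5% CO2. Cells had been plated overnight in complete medium before the compound was added at a 200-fold final dilution. IC50 was derived from percent inhibition.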

[2] = test system: PI3Kα H1047R mutation cell line MDA-MB-453; experiment: Cell Proliferation IC50 Assay (CellTiter-Glo), MDA-MB-453; details: MDA-MB-453 (H1047R), 72 hours, CellTiter-Glo, read-out: IC50 (μM) MDA-MB-453
Text: PI3Kα H1047R mutation cell line T-47D and MDA-MB-453, E545K mutation cell line MDA-MB-361 and PI3Kα wide type cell line SK-BR-3 were purchased from Cobioer Biotech (cat. no CBP60397, CBP60386, CBP60383 and CBP60413 respectively). The CellTiter-Glo Direct Cell Proliferation Assay Kit was purchased from Prornega (cat. No. G7573)
For cell proliferation assay in each cell line: • a. Prepare complete medium (R PMI 1640, DMEM or McCoys): Add FBS and appropriate additives according to the information sheet provided by the vendor. Mix gently. • b. Prepare single cell suspension and count the cell numbers and adjust cells to appropriate density. • c. Add 80 μL of cell suspension to 96-well opaque-walled clear bottom plates according to the planned plate layout and place the plates in the CO2 incubator overnight. • d. Prepare intermediate plate: 10 μl of diluted test compounds or staurosporine solution (200×) is added to a 96 deep well plate. Then 390 μl of culture medium without FBS is added to the respective wells. • e. Transfer 20 μL of the solutions from the above intermediate plate to the wells of the plate prepared containing 80 μL of the culture medium and cells. The total dilution is 200 folds. • f. The cells were then incubated at 5% CO2, 37° C. for 72 hours. • g. Equilibrate the plate and its contents to room temperature for approximately 30 minutes. • h. Add 100 μL of CellTiter-Glo reagent to the assay plate • i. Mix contents for 10 minutes on an orbital shaker to induce cell lysis. • j. Allow the plate to incubate at room temperature for 10 minutes to stabilize luminescent signal, • k. Paste the clear bottom with white back seal and record luminescence with Varioskan LUX plate reader.
Inhibition % and IC50 value were calculated by the formula described below: […]

[3] = test system: PI3Kα wide type cell line SK-BR-3; experiment: Cell Proliferation IC50 Assay (CellTiter-Glo), SK-BR-3; details: SK-BR-3 (PI3Kα wild type), 72 hours, CellTiter-Glo, read-out: IC50 (μM) SK-BR-3
Method in brief: as §1

| SMILES | IC50 ([1]; Homo sapiens, T47D, 72 h) | IC50 ([2]; Homo sapiens) | IC50 ([3]; Homo sapiens) | IC50 [1] | IC50 [2] | IC50 [3] |
| --- | --- | --- | --- | --- | --- | --- |
| Cc1cc([C@@H](C)Nc2ccccc2C(=O)O)c2oc(-c3ccc(Cc4cnn(C)c4)cc3)c(C)c(=O)c2c1 [Example 151, 2-[[(1R)-1-[3,6-dimethyl-2-[4-[(1-methylpyrazol-4-yl)methyl]phenyl]-4-oxo-chromen-8-yl]ethyl]amino]benzoic acid] | 0.058 µM | 0.089 µM | > 10 µM | – | – | – |
| Cc1cc(C(C)Nc2ccccc2C(=O)O)c2oc(-c3ccc4ncccc4c3)cc(=O)c2c1 (stereo not drawn) [Example 35, 2-((1-(6-methyl-4-oxo-2-(quinolin-6-yl)-4H-chromen-8-yl)ethyl)amino)benzoic acid] | 0.5 µM | 0.57 µM | > 10 µM | – | – | – |
| Cc1cc([C@@H](C)Nc2ccccc2C(=O)O)c2oc(-c3ccc4nn(C)cc4c3)c(C)c(=O)c2c1 [Example 49A, (R)-2-((1-(3,6-dimethyl-2-(2-methyl-211-indazol-5-yl)-4-oxo-4H-chromen-8-yl)ethyl)amino)benzoic acid] | – | – | – | 0.07 µM | 0.09 µM | > 10 µM |
| Cc1cc(C(C)Nc2ccccc2C(=O)O)c2oc(-c3cccnc3)cc(=O)c2c1 (stereo not drawn) [Example 32, 2-((1-(6-methyl-4-oxo-2-(pyridin-3-yl)-4H-chromen-8-yl)ethyl)amino)benzoic acid] | 0.75 µM | 1.38 µM | > 10 µM | – | – | – |
| Cc1cc(C(C)Nc2ccccc2C(=O)O)c2oc(C3CCN(C(=O)OC(C)(C)C)CC3)cc(=O)c2c1 (stereo not drawn) [Example 13, 2-((1-(2-(1-(tert-butoxycarbonyl)piperidin-4-yl)-6-methyl-4-oxo-4H-chromen-8-yl)ethyl)amino)benzoic acid] | 1.33 µM | 2.29 µM | > 10 µM | – | – | – |
| Cc1cc(C(C)Nc2ccccc2C(=O)O)c2oc(C3CCN(c4ccccc4)CC3)cc(=O)c2c1 (stereo not drawn) [Example 18, 2-((1-(6-methyl-4-oxo-2-(1-phenylpiperidin-4-yl)-4H-chromen-8-yl)ethyl)amino)benzoic acid] | 0.31 µM | 0.77 µM | > 10 µM | – | – | – |
| Cc1cc(C(C)Nc2ccccc2C(=O)O)c2oc(-c3cnoc3)cc(=O)c2c1 (stereo not drawn) [Example 39, 2-((1-(2-(isoxazol-4-yl)-6-methyl-4-oxo-4H-chromen-8-yl)ethyl)amino)benzoic acid] | 1.98 µM | 2.49 µM | > 10 µM | – | – | – |
| Cc1cc(C(C)Nc2ccccc2C(=O)O)c2oc(-c3ccccc3)cc(=O)c2c1 (stereo not drawn) [Example 1, 2-((1-(6-methyl-4-oxo-2-phenyl-4H-chromen-8-yl)ethyl)amino)benzoic acid] | 0.33 µM | 0.7 µM | > 10 µM | – | – | – |
| Cc1cc(C(C)Nc2ccccc2C(=O)O)c2oc(-c3ccn(C)c(=O)c3)cc(=O)c2c1 (stereo not drawn) [Example 34, 2-((1-(6-methyl-2-(1-methyl-2-oxo-1,2-dihydropyridin-4-yl)-4-oxo-4H-chromen-8-yl)ethyl)amino)benzoic acid] | 4.63 µM | 7.82 µM | > 10 µM | – | – | – |
| Cc1cc(C(C)Nc2ccccc2C(=O)O)c2oc(C3CCNCC3)cc(=O)c2c1 (stereo not drawn) [Example 15, 2-((1-(6-methyl-4-oxo-2-(piperidin-4-yl)-4H-chromen-8-yl)ethyl)amino)benzoic acid] | > 10 µM | > 10 µM | > 10 µM | – | – | – |
| Cc1cc(C(C)Nc2ccccc2C(=O)O)c2oc(-c3ccc4c(c3)CN(C)C4=O)cc(=O)c2c1 (stereo not drawn) [Example 6, 2-((1-(6-methyl-2-(2-methyl-1-oxoisoindolin-5-yl)-4-oxo-4H-chromen-8-yl)ethyl)amino)benzoic acid] | 0.23 µM | 0.29 µM | > 10 µM | – | – | – |
| Cc1cc(C(C)Nc2ccccc2C(=O)O)c2oc(-c3ccc(Cl)cc3)cc(=O)c2c1 (stereo not drawn) [Example 3, 2-((1-(2-(4-chlorophenyl)-6-methyl-4-oxo-4H-chromen-8-yl)ethyl)amino)benzoic acid] | 0.75 µM | 0.56 µM | > 10 µM | – | – | – |
| Cc1cc(C(C)Nc2ccccc2C(=O)O)c2oc(-c3ccc(N4CCOCC4)cc3)cc(=O)c2c1 (stereo not drawn) [Example 42, 2-((1-(6-methyl-2-(4-morpholinophenyl)-4-oxo-4H-chromen-8-yl)ethyl)amino)benzoic acid] | 0.21 µM | 0.2 µM | > 10 µM | – | – | – |
| CC(=O)N1CCN(c2ccc(-c3oc4c([C@H](C)Nc5ccccc5C(=O)O)cc(C)cc4c(=O)c3C)cc2)CC1 (single isomer, unassigned) [Example 123B] | > 10 µM | > 10 µM | > 10 µM | – | – | – |
| Cc1cc(C(C)Nc2ccccc2C(=O)O)c2oc(-c3ccc4c(c3)CN(C)C4=O)c(C)c(=O)c2c1 (stereo not drawn) [Example 20, 2-((1-(3,6-dimethyl-2-(2-methyl-1-oxoisoindolin-5-yl)-4-oxo-4H-chromen-8-yl)ethyl)amino)benzoic acid] | 0.12 µM | 0.18 µM | > 10 µM | – | – | – |
| Cc1cc([C@@H](C)Nc2ccccc2C(=O)O)c2oc(-c3ccc(N4CCOCC4)cc3)c(C)c(=O)c2c1 (single isomer, unassigned) [Example 53A] | 0.09 µM | 0.12 µM | > 10 µM | – | – | – |
| CC(=O)N1CCN(c2ccc(-c3oc4c([C@@H](C)Nc5ccccc5C(=O)O)cc(C)cc4c(=O)c3C)cc2F)CC1 [Example 154, (R)-2-((1-(2-(4-(4-acetylpiperazin-1-yl)-3-fluorophenyl)-3,6-dimethyl-4-oxo-41H-chromen-8-yl)ethyl)amino)benzoic acid] | 0.074 µM | 0.086 µM | > 10 µM | – | – | – |
| Cc1cc([C@H](C)Nc2ccccc2C(=O)O)c2oc(-c3ccc4nn(C)cc4c3)cc(=O)c2c1 [Example 38A, (S)-2-((1-(6-methyl-2-(2-menthyl-2H-indazol-5-yl)-4-oxo-411-chromen-8-yl)ethyl)amino)benzoic acid] | – | – | – | > 10 µM | > 10 µM | > 10 µM |
| Cc1cc(C(C)Nc2ccc(Cl)nc2C(=O)O)c2oc(-c3ccc4c(c3)CN(C)C4=O)c(C)c(=O)c2c1 (stereo not drawn) [Example 22, 6-chloro-3-((1-(3,6-dimethyl-2-(2-methyl-1-oxoisoindolin-5-yl)-4-oxo-4H-chromen-8-yl)ethyl)amino)picolinic acid] | 0.72 µM | 0.63 µM | 5.07 µM | – | – | – |
| Cc1cc([C@@H](C)Nc2ccccc2C(=O)O)c2oc(-c3ccc4c(c3)CN(C)C4=O)c(C)c(=O)c2c1 (single isomer, unassigned) [Example 20B] | 0.048 µM | 0.07 µM | > 10 µM | – | – | – |
| Cc1cc(C(C)Nc2ccccc2C(=O)O)c2oc(-c3ccc4nn(C)cc4c3)cc(=O)c2c1 (stereo not drawn) [Example 38] | 0.08 µM | 0.15 µM | > 10 µM | – | – | – |
| Cc1cc(C(C)Nc2ccccc2C(=O)O)c2oc(-c3cccs3)cc(=O)c2c1 (stereo not drawn) [Example 26, 2-((1-(6-methyl-4-oxo-2-(thiophen-2-yl)-4H-chromen-8-yl)ethyl)amino)benzoic acid] | 0.66 µM | 0.83 µM | > 10 µM | – | – | – |
| Cc1cc(C(C)Nc2ccccc2C(=O)O)c2oc(-c3ccc4c(c3)OCO4)cc(=O)c2c1 (stereo not drawn) [Example 4, 2-((1-(2-(benzo[d][1,3]dioxol-5-yl)-6-methyl-4-oxo-4H-chromen-8-yl)ethyl)amino)benzoic acid] | 0.56 µM | 0.75 µM | > 10 µM | – | – | – |
| Cc1cc(C(C)Nc2ccccc2C(=O)O)c2oc(C3CCN(C(=O)C4CC4)CC3)cc(=O)c2c1 (stereo not drawn) [Example 30, 2-((1-(2-(1-(cyclopropanecarbonyl)piperidin-4-yl)-6-methyl-4-oxo-4H-chromen-8-yl)ethyl)amino)benzoic acid] | 1.87 µM | 4 µM | > 10 µM | – | – | – |
| Cc1cc(C(C)Nc2ccccc2C(=O)O)c2oc(-c3cnn(C)c3)cc(=O)c2c1 (stereo not drawn) [Example 10, 2-((1-(6-methyl-2-(1-methyl-1H-pyrazol-4-yl)-4-oxo-4H-chromen-8-yl)ethyl)amino)benzoic acid] | 0.86 µM | 2.44 µM | > 10 µM | – | – | – |
| Cc1cc(C(C)Nc2ccccc2C(=O)O)c2oc(-c3ccc4c(cnn4C)c3)cc(=O)c2c1 (stereo not drawn) [Example 37, 2-((1-(6-methyl-2-(1-methyl-1H-indazol-5-yl)-4-oxo-4H-chromen-8-yl)ethyl)amino)benzoic acid] | 0.42 µM | 0.8 µM | > 10 µM | – | – | – |
